# Measured values published in patent US20100015249A1, “Antitumor agent containing 6'-amidino-2'-naphthyl 4-guanidinobenzoate or salt thereof” (priority 2005, published 2010).
# Experiments:
# [1] = test system: human pancreas cancer cell line MDAPanc-28; experiment: Apoptosis ratio by flow cytometry (propidium iodide, FACScan); type: cell-based; conditions: MDAPanc-28, pretreatment with the agent 3 hours then gemcitabine 48 hours, compared with gemcitabine alone
# Procedure: The present inventors next examined the effect of these agents on apoptosis induction in the human pancreas cancer cell line MDAPanc-28. […] Flow cytometry was used to confirm the occurrence of apoptosis. Cells were collected after treatments with the agents and fixed in 70% ethanol at −20° C. for 24 hours. After rinsing with PBS, cells were suspended in PBS containing 50 μg/ml of propium iodide, 0.1% Triton X-100, 0.1% sodium citrate and 1 μg/ml of DNase free RNase. The samples were incubated at room temperature for 30 minutes and the amount of DNA was measured by using FACScan.
# TNFRI = TNFRI expression by Northern blot and Western blot; type: cell-based, human
# Procedure: A cDNA probe for hybridization was constructed by the following method. After FUT treatment, RNA was extracted from the human pancreas cancer cell line […]-28 by using TRIZOL Reagent (Life Technologies, Inc.) 15 μg of RNA was subjected to electrophoresis on a 1% denatured formaldehyde agarose gel and transferred to a nylon membrane. RT-PCR was performed in order to construct a cDNA probe to be used for the detection of TNFRI mRNA. With this RT-PCR, primers represented by SEQ ID Nos: 5 and 6 were used. The obtained cDNA was inserted into the pCR2.1-TOPO vector. […] The obtained cDNA probe was labeled with α-^32P dCTP by using the random labeling kit (Roche) and used for hybridization. The expression of TNFRI mRNA was confirmed by Northern blot method with the above mentioned probe according to the method generally known. […] Also, TNFRI expression on the cell surface was detected by Western blot method. More specifically, the experiment was performed by the method similar to the method described in Example 2. Mouse monoclonal anti-TNFR1 (H-5; Santa Cruz Biotechnology) was used for detection.
structure (smiles),measurement,setting,value
"N=C(N)c1ccc2cc(OC(=O)c3ccc(N=C(N)N)cc3)ccc2c1 [FUT, 6-amidino-2-naphthyl p-guanidinobenzoate dimethanesulfonate]",apoptosis induction in combination with gemcitabine,[1],further enhanced the effect on apoptosis induction
same,level of TNFRI mRNA expression,"TNFRI; MDAPanc-28, Northern blot",increased in a FUT concentration-dependent manner
same,TNFRI expression on the cell surface,"TNFRI; MDAPanc-28, Western blot",increased TNFRI expression on the cell surface
